Measurements published in patent EP4063344A1, “SALT OF 2-ADAMANTYL ACETIC ACID HAVING ANTI-VIRAL ACTIVITY, FORMULATIONS THEREOF AND USES THEREOF” (Sciamannini, Umbro, priority 2021, dated 2022).

Test system: viral and/or fungal and/or bacterial
Settings: no test conditions given

## 1-hexadecanaminium, N,N,N,trimethyl-tricyclo[3.3.1.13,7]decane-2-acetate(1:1) [salt of the invention]
  viral and/or fungal and/or bacterial inhibition action: greater than 4 log
